Experiment [1] has as its target T1, human orexin 2 receptors (Homo sapiens, UniProt O43614).
T1 sequence (O43614 1-444): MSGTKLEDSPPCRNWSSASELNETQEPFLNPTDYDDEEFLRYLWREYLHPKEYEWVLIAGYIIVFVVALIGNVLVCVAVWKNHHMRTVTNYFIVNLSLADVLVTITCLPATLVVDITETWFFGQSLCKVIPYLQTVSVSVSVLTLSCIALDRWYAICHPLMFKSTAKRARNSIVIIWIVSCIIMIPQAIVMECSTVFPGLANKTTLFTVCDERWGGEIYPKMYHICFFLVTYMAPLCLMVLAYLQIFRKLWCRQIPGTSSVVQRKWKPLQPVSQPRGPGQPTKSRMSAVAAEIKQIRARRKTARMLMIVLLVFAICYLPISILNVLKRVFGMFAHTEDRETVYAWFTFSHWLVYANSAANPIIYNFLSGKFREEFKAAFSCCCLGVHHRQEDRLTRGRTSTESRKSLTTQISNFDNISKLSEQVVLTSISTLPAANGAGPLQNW
The experiment can be described thus: Calcium accumulation in cells (FLIPR), hOx2R. Type of experiment: cell-based. As to conditions: cells expressing human orexin 2 receptor; inhibition of orexin A-induced calcium accumulation; Cheng and Prusoff correction.

Experiment [2] addresses T2, human orexin 1 receptors (Homo sapiens, UniProt O43613).
T2 sequence (O43613 1-425): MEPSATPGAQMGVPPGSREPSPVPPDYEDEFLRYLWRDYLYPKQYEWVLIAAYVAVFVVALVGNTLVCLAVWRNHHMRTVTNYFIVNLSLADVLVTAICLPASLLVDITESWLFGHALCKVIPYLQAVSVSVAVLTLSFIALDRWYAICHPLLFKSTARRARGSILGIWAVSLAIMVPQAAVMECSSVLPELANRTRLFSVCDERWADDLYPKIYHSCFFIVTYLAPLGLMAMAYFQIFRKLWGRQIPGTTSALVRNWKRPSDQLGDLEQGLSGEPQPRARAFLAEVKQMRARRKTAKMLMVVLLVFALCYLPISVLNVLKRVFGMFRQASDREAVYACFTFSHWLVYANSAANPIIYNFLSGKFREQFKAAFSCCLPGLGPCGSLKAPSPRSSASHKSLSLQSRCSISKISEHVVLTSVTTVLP
The experiment can be described thus: Radioligand binding assay ([3H]-SB649868 competition), hOx1R. As to conditions: competition with about 1 nM [3H]-SB649868; CHO or HEK cell membranes expressing human orexin 1 receptor. In outline:
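Membranes from hOx1R-expressing cells incubated 1 h at room temperature with about 1 nM [3H]-SB649868 and test compound, in triplicate. Buffer was 10 mM HEPES pH 7.5, 0.5% BSA, 5 mM MgCl2, 1 mM CaCl2, 0.05% tween; 10 μM almorexant defined non-specific binding. Filtration then counting of bound radioactivity; values reported as Kd.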

Experiment [3] has as its target T1, human orexin 2 receptors. The experiment is described as follows: Radioligand binding assay ([3H]-SB649868 competition), hOx2R. As to conditions: competition with about 1 nM [3H]-SB649868; CHO or HEK cell membranes expressing human orexin 2 receptor; read-out: binding hOx2R Kd. In a few lines:
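Membranes were incubated 1 h at room temperature in 10 mM HEPES pH 7.5 with 0.5% BSA, 5 mM MgCl2, 1 mM CaCl2 and 0.05% Tween, with about 1 nM [3H]-SB649868 and test compounds in triplicate. Non-specific binding was defined with 10 μM almorexant, and bound radioactivity was counted.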

The target in experiment [4] is T2, human orexin 1 receptors. The experiment is described as follows: Calcium accumulation in cells (FLIPR), hOx1R.

On to `Cc1cc(C)nc(N2CCC3(CCCN(Cc4ccccc4-c4ncco4)C3=O)CC2)n1` [Example 93, 9-(4,6-dimethylpyrimidin-2-yl)-2-(2-(oxazol-2-yl)benzyl)-2,9-diazaspiro[5.5]undecan-1-one], for which the Ki in experiment [1] is 16 nM; in experiment [4], 1400 nM. For the same compound, the figures for the Kd in experiment [2] and in experiment [3] were 4130 nM and 91 nM, respectively.
In the same order, the values of `Cc1ccnc(N2CCC3(CCCC(=O)N3Cc3cccc4[nH]c(C)cc34)CC2)n1` [Example 96, 1-((2-methyl-1H-indol-4-yl)methyl)-9-(4-methylpyrimidin-2-yl)-1,9-diazaspiro[5.5]undecan-2-one] are 18 nM, 866 nM, 1940 nM and 90 nM.
Consider `Cc1nc(N2CCC3(CCCN(Cc4c[nH]c5ccccc45)C3=O)CC2)ncc1F` [Example 102, 2-((1H-indol-3-yl)methyl)-9-(5-fluoro-4-methylpyrimidin-2-yl)-2,9-diazaspiro[5.5]undecan-1-one], for which the results for the Ki in experiment [1] and in experiment [4] were 40 nM and 1070 nM, respectively. Further, the Kd was determined as 1160 nM in experiment [2] and 59 nM in experiment [3].
In the same order, the values of `Cc1cc(C)nc(N2CCC3(CCCN(Cc4c[nH]c5c(C)cccc45)C3=O)CC2)n1` [Example 103, 9-(4,6-dimethylpyrimidin-2-yl)-2-((7-methyl-1H-indol-3-yl)methyl)-2,9-diazaspiro[5.5]undecan-1-one] are 26 nM, 1900 nM, 1770 nM and 35 nM.
For the compound `Cc1ccc2[nH]cc(CN3CCCC4(CCN(c5nc(C)cc(C)n5)CC4)C3=O)c2c1` [Example 104, 9-(4,6-dimethylpyrimidin-2-yl)-2-((5-methyl-1H-indol-3-yl)methyl)-2,9-diazaspiro[5.5]undecan-1-one], the Ki in experiment [1] was 4.8 nM; in experiment [4], 292 nM. Further, the Kd was 1020 nM in experiment [2] and 25 nM in experiment [3].
In the same order, the values of `Cc1cc(C)nc(N2CCC3(CCCN(Cc4c[nH]c5ccc(C#N)cc45)C3=O)CC2)n1` [Example 105, 3-((9-(4,6-dimethylpyrimidin-2-yl)-1-oxo-2,9-diazaspiro[5.5]undecan-2-yl)methyl)-1H-indole-5-carbonitrile] are 3.3 nM, 295 nM, 655 nM and 25 nM.
In the same order, the values of `Cc1cc(C)nc(N2CCC3(CCCN(Cc4n[nH]cc4-c4ccccc4)C3=O)CC2)n1` [Example 106, 9-(4,6-dimethylpyrimidin-2-yl)-2-((4-phenyl-1H-pyrazol-3-yl)methyl)-2,9-diazaspiro[5.5]undecan-1-one] are 3.3 nM, 763 nM, 1830 nM and 49 nM.
Regarding `Cc1cc(C)nc(N2CCC3(CCCN(Cc4nn(C)cc4-c4ccccc4)C3=O)CC2)n1` [Example 107, 9-(4,6-dimethylpyrimidin-2-yl)-2-((1-methyl-4-phenyl-1H-pyrazol-3-yl)methyl)-2,9-diazaspiro[5.5]undecan-1-one], the Ki in experiment [1] is 20 nM; in experiment [4], 833 nM. For the same compound, the Kd in experiment [2] came out at 2250 nM; in experiment [3], 166 nM.
In the same order, the values of `Cc1cc(C)nc(N2CCC3(CCCN(Cc4nc(C)oc4-c4ccccc4)C3=O)CC2)n1` [Example 108, 9-(4,6-dimethylpyrimidin-2-yl)-2-((2-methyl-5-phenyloxazol-4-yl)methyl)-2,9-diazaspiro[5.5]undecan-1-one] are 18 nM, 507 nM, 852 nM and 72 nM.
In the same order, the values of `Cc1cc(C)nc(N2CCC3(CCCN(Cc4nc(C)sc4-c4ccccc4)C3=O)CC2)n1` [Example 109, 9-(4,6-dimethylpyrimidin-2-yl)-2-((2-methyl-5-phenylthiazol-4-yl)methyl)-2,9-diazaspiro[5.5]undecan-1-one] are 42 nM, 1370 nM, 2560 nM and 188 nM.
The matching figures for `COc1cccc(-c2sc(C)nc2CN2CCCC3(CCN(c4nc(C)cc(C)n4)CC3)C2=O)c1` [Example 110, 9-(4,6-dimethylpyrimidin-2-yl)-2-((5-(3-methoxyphenyl)-2-methylthiazol-4-yl)methyl)-2,9-diazaspiro[5.5]undecan-1-one]: 3.8 nM, 213 nM, 236 nM and 7 nM.
Turning to `CCc1cc(C)nc(N2CCC3(CCCN(Cc4c[nH]c5ccccc45)C3=O)CC2)n1` [Example 111, 2-((1H-indol-3-yl)methyl)-9-(4-ethyl-6-methylpyrimidin-2-yl)-2,9-diazaspiro[5.5]undecan-1-one], the Ki in experiment [1] is 11 nM; in experiment [4], 761 nM. Besides, the Kd in experiment [2] amounted to 835 nM; in experiment [3], 44 nM.
In the same order, the values of `COc1cc(C)nc(N2CCC3(CCCN(Cc4n[nH]c5ccccc45)C3=O)CC2)n1` [Example 112, 2-((1H-indazol-3-yl)methyl)-9-(4-methoxy-6-methylpyrimidin-2-yl)-2,9-diazaspiro[5.5]undecan-1-one] are 6.1 nM, 255 nM, 912 nM and 82 nM.
In the same order, the values of `Cc1cc(N(C)C)nc(N2CCC3(CCCN(Cc4c[nH]c5ccccc45)C3=O)CC2)n1` [Example 113, 2-((1H-indol-3-yl)methyl)-9-(4-(dimethylamino)-6-methylpyrimidin-2-yl)-2,9-diazaspiro[5.5]undecan-1-one] are 21 nM, 1430 nM, 389 nM and 28 nM.
The matching figures for `COc1ccnc(N2CCC3(CCCN(Cc4ccccc4-c4nc(C)no4)C3=O)CC2)n1` [Example 114, 9-(4-methoxypyrimidin-2-yl)-2-(2-(3-methyl-1,2,4-oxadiazol-5-yl)benzyl)-2,9-diazaspiro[5.5]undecan-1-one]: 30 nM, 1530 nM, 2140 nM and 231 nM.
Take `COCc1ccc2[nH]cc(CN3CCCC4(CCN(c5nc(C)cc(C)n5)CC4)C3=O)c2c1` [Example 116, 9-(4,6-dimethylpyrimidin-2-yl)-2-((5-(methoxymethyl)-1H-indol-3-yl)methyl)-2,9-diazaspiro[5.5]undecan-1-one]: the figures for the Ki in experiment [1] and in experiment [4] were 0.3 nM and 33 nM, respectively. Also, the Kd in experiment [2] was determined as 94 nM; in experiment [3], 2 nM.
The matching figures for `Cc1cc(C)nc(N2CCC3(CCCN(Cc4c[nH]c5ccc(-n6cccn6)cc45)C3=O)CC2)n1` [Example 117, 2-((5-(1H-pyrazol-1-yl)-1H-indol-3-yl)methyl)-9-(4,6-dimethylpyrimidin-2-yl)-2,9-diazaspiro[5.5]undecan-1-one]: 1.3 nM, 37 nM, 1020 nM and 27 nM.
In the same order, the values of `Cc1cc(C)nc(N2CCC3(CCCN(Cc4nn(C)nc4Br)C3=O)CC2)n1` [Example 118, 2-((5-bromo-2-methyl-2H-1,2,3-triazol-4-yl)methyl)-9-(4,6-dimethylpyrimidin-2-yl)-2,9-diazaspiro[5.5]undecan-1-one] are 79 nM, 3580 nM, 2110 nM and 178 nM.
